Results as given in patent US8124653B2, “Methods and compositions for the treatment of attention deficit hyperactivity disorder and hyperphenylalanemia” (The Board of Regents of The University of Texas System, priority 2004, dated 2012).
Several values for one entry are separate records, joined by “and”; a condition that tells them apart may be missing. Equal values may be shown once.

Key:
PKU patients = experiment: Single oral BH4 dose in PKU patients, blood Phe and tyrosine response (Example 1); type: in vivo, human; conditions: single oral 10 mg/kg, responder = Phe reduction 25% or greater with tyrosine increase 25% or greater within 24 hours
Method: PKU patients were administered a single oral dose of 10 mg/kg BH4, and blood levels of both Phe and tyrosine were monitored at 0, 4, 8, 24 hours post-dose. In this regard, it should be noted that this is half the dose administered by previous investigators.

patients with PKU = experiment: Oral BH4 loading in patients with PKU, blood Phe and tyrosine by tandem MS/MS (Example 2); type: in vivo, human
Method: This study included 15 males and 10 females with PKU. There were 13 subjects with “classical” PKU (based on blood Phe levels greater than 20 mg/dL) and 12 with “atypical” PKU (blood Phe 6.0-20 mg/dL). The mean age of the subjects was 16.6 years with a range from 6 months to 43 years. All subjects were on a restricted Phe diet, except four subjects with atypical PKU, who had discontinued diet treatment. […] Tetrahydrobiopterin (BH4) was obtained from Schircks Laboratories, Jena, Switzerland. The subjects were given BH4 10 mg/kg or 20 mg/kg by mouth after baseline blood Phe and tyrosine were drawn. Blood Phe and tyrosine were taken at 4, 8, and 24 hours and determined using tandem MS/MS (Neogen).

PKU afflicted mice = experiment: Levels of metabolites in mouse brain following BH4 and 6-methyl BH4 treatment, PKU mice; type: in vivo; conditions: for 3OMD level in brain / 5HT level in brain / DA level in brain / DOPAC level in brain / HIAA level in brain / HVA level in brain / MPHG level in brain: PKU mice, single dose IM 100 mg/kg, after 1 hr, one line per animal
Method: (§1) To comparatively investigate the CNS effects of BH4 and methyl BH4, we used mice both with and without PKU. A single dose of either compound was given IM, 100 mg/kg to PKU afflicted and normal mice, with control groups receiving buffer only. After 1 hr, a time sufficient to observe changes in brain chemistry, the mice were sacrificed, and brains were sent out for analysis of 3-O-methyldopa (“3OMD”), 5-hydroxytryptamine ([…]) (serotonin), dihydroxybenzoic acid (“DHBA”), dopamine (“DA”), dihydroxyphenylacetic acid (“DOPAC”), hydroxyindoleacetic acid (“HIAA”), homovanilic acid (“HVA”), and methoxyhydroxyphenylglycol (“MPHG”) levels.

normal mice = experiment: Levels of metabolites in mouse brain following BH4 and 6-methyl BH4 treatment, normal mice; type: in vivo; conditions: Non PKU mice, single dose IM 100 mg/kg, after 1 hr; one line per animal
Method: as §1

[1] = system: release of neurotransmitter amines; conditions: U.S. Pat. No. 5,606,020 to Watanabe et al.; cited from earlier work

SMILES: C[C@H](O)[C@H](O)[C@H]1CNc2nc(N)[nH]c(=O)c2N1 [BH4, Tetrahydrobiopterin]
- Number of Responders (PKU patients; Atypical PKU, blood Phe 6-20 mg/dl, 9 subjects): 9
- Number of Responders (PKU patients; Classic PKU, blood Phe 20-50 mg/dl, 6 subjects): 0
- Number of classical PKU subjects who responded to BH4 (patients with PKU; 13 subjects with classical PKU (blood Phe greater than 20 mg/dL)): 6
- Drop in blood Phe level (patients with PKU; non-responding patients with R261Q allele challenged again with 20 mg/kg BH4): 10%
- Mean decline in blood Phe (patients with PKU; responders, after BH4 loading): 53.7%
- Mean blood Phe level after BH4 loading (patients with PKU; responders, prior to BH4 12.2 mg/dL): 6.6 mg/dL
- Mean blood Phe level after BH4 loading (patients with PKU; responders, prior to BH4 732 mmol/L, unit of the source corrected): 396 µM
- 3OMD level in brain (PKU afflicted mice): 0.48 nmol/g wet weight and 0.16 nmol/g wet weight and 0.09 nmol/g wet weight and 0.55 nmol/g wet weight and 95.1 nmol/l and 32.9 nmol/l and 18.2 nmol/l and 110.4 nmol/l
- 5HT level in brain (PKU afflicted mice): 0.16 nmol/g wet weight and 0.23 nmol/g wet weight and 0.15 nmol/g wet weight and 0.24 nmol/g wet weight and 31.5 nmol/l and 45.7 nmol/l and 30.4 nmol/l and 48.3 nmol/l
- DA level in brain (PKU afflicted mice): 6.28 nmol/g wet weight and 9.48 nmol/g wet weight and 6.91 nmol/g wet weight and 8.08 nmol/g wet weight and 1256.0 nmol/l and 1896.3 nmol/l and 1382.2 nmol/l and 1616.2 nmol/l
- DOPAC level in brain (PKU afflicted mice): 0.40 nmol/g wet weight and 0.53 nmol/g wet weight and 0.51 nmol/g wet weight and 0.37 nmol/g wet weight and 80.9 nmol/l and 105.7 nmol/l and 101.0 nmol/l and 73.1 nmol/l
- HIAA level in brain (PKU afflicted mice): 0.91 nmol/g wet weight and 1.68 nmol/g wet weight and 0.94 nmol/g wet weight and 1.45 nmol/g wet weight and 181.1 nmol/l and 336.9 nmol/l and 188.0 nmol/l and 290.6 nmol/l
- HVA level in brain (PKU afflicted mice): 0.80 nmol/g wet weight and 1.04 nmol/g wet weight and 0.77 nmol/g wet weight and 0.94 nmol/g wet weight and 160.6 nmol/l and 207.0 nmol/l and 153.6 nmol/l and 188.7 nmol/l
- MPHG level in brain (PKU afflicted mice): 0.18 nmol/g wet weight and 0.21 nmol/g wet weight and 0.26 nmol/g wet weight and 0.16 nmol/g wet weight and 35.2 nmol/l and 42.9 nmol/l and 51.6 nmol/l and 31.6 nmol/l
- 3OMD level in brain (normal mice): 0.58 nmol/g wet weight and 0.27 nmol/g wet weight and 0.60 nmol/g wet weight and 0.41 nmol/g wet weight and 115.6 nmol/l and 53.3 nmol/l and 119.7 nmol/l and 81.1 nmol/l
- 5HT level in brain (normal mice): 1.27 nmol/g wet weight and 1.21 nmol/g wet weight and 1.16 nmol/g wet weight and 1.53 nmol/g wet weight and 253.5 nmol/l and 242.3 nmol/l and 231.2 nmol/l and 305.2 nmol/l
- DA level in brain (normal mice): 9.06 nmol/g wet weight and 9.56 nmol/g wet weight and 9.63 nmol/g wet weight and 9.93 nmol/g wet weight and 1811.4 nmol/l and 1912.5 nmol/l and 1926.7 nmol/l and 1985.9 nmol/l
- DOPAC level in brain (normal mice): 0.68 nmol/g wet weight and 0.62 nmol/g wet weight and 0.72 nmol/g wet weight and 0.79 nmol/g wet weight and 136.6 nmol/l and 124.4 nmol/l and 143.4 nmol/l and 158.6 nmol/l
- HIAA level in brain (normal mice): 3.49 nmol/g wet weight and 3.23 nmol/g wet weight and 3.19 nmol/g wet weight and 3.58 nmol/g wet weight and 697.5 nmol/l and 646.1 nmol/l and 638.7 nmol/l and 716.9 nmol/l
- HVA level in brain (normal mice): 1.08 nmol/g wet weight and 1.09 nmol/g wet weight and 1.22 nmol/g wet weight and 1.18 nmol/g wet weight and 216.9 nmol/l and 217.7 nmol/l and 243.0 nmol/l and 236.6 nmol/l
- MPHG level in brain (normal mice): 0.36 nmol/g wet weight and 0.30 nmol/g wet weight and 0.40 nmol/g wet weight and 0.33 nmol/g wet weight and 72.5 nmol/l and 60.6 nmol/l and 80.2 nmol/l and 66.7 nmol/l

SMILES: CC1CNc2nc(N)[nH]c(=O)c2N1 (centres unmarked) [6-Me BH4, 6-methyl-tetrahydropterin]
- Overall effect on CNS chemistry, compared with BH4 (PKU afflicted mice; PKU and normal mice, IM 100 mg/kg, 1 hr, summary of Tables 5 and 6): greater effect on CNS chemistry
- 3OMD level in brain (PKU afflicted mice): 0.39 nmol/g wet weight and 0.26 nmol/g wet weight and 0.17 nmol/g wet weight and 0.47 nmol/g wet weight and 77.7 nmol/l and 51.9 nmol/l and 34.9 nmol/l and 94.1 nmol/l
- 5HT level in brain (PKU afflicted mice): 0.20 nmol/g wet weight and 0.15 nmol/g wet weight and 0.28 nmol/g wet weight and 0.24 nmol/g wet weight and 40.0 nmol/l and 30.0 nmol/l and 56.7 nmol/l and 47.6 nmol/l
- DA level in brain (PKU afflicted mice): 10.16 nmol/g wet weight and 7.14 nmol/g wet weight and 6.46 nmol/g wet weight and 7.27 nmol/g wet weight and 2031.2 nmol/l and 1427.4 nmol/l and 1292.6 nmol/l and 1454.4 nmol/l
- DOPAC level in brain (PKU afflicted mice): 0.51 nmol/g wet weight and 0.40 nmol/g wet weight and 0.52 nmol/g wet weight and 0.48 nmol/g wet weight and 101.7 nmol/l and 80.6 nmol/l and 104.5 nmol/l and 95.6 nmol/l
- HIAA level in brain (PKU afflicted mice): 1.70 nmol/g wet weight and 1.03 nmol/g wet weight and 1.64 nmol/g wet weight and 1.41 nmol/g wet weight and 340.4 nmol/l and 205.6 nmol/l and 328.1 nmol/l and 282.2 nmol/l
- HVA level in brain (PKU afflicted mice): 1.18 nmol/g wet weight and 0.94 nmol/g wet weight and 0.92 nmol/g wet weight and 0.91 nmol/g wet weight and 236.9 nmol/l and 187.2 nmol/l and 184.5 nmol/l and 182.1 nmol/l
- MPHG level in brain (PKU afflicted mice): 0.36 nmol/g wet weight and 0.26 nmol/g wet weight and 0.32 nmol/g wet weight and 0.18 nmol/g wet weight and 71.2 nmol/l and 52.1 nmol/l and 63.2 nmol/l and 36.3 nmol/l
- Ability to traverse the blood brain barrier, as compared to BH4 (PKU afflicted mice; inferred from brain metabolite levels, PKU and normal mice): better ability to traverse the blood brain barrier
- 3OMD level in brain (normal mice): 0.57 nmol/g wet weight and 0.29 nmol/g wet weight and 0.36 nmol/g wet weight and 0.44 nmol/g wet weight and 114.5 nmol/l and 87.7 nmol/l and 58.2 nmol/l and 71.7 nmol/l
- 5HT level in brain (normal mice): 1.07 nmol/g wet weight and 1.31 nmol/g wet weight and 1.21 nmol/g wet weight and 1.11 nmol/g wet weight and 214.3 nmol/l and 222.6 nmol/l and 261.1 nmol/l and 242.3 nmol/l
- DA level in brain (normal mice): 10.86 nmol/g wet weight and 10.26 nmol/g wet weight and 11.50 nmol/g wet weight and 10.56 nmol/g wet weight and 2172.4 nmol/l and 2112.1 nmol/l and 2051.2 nmol/l and 2300.5 nmol/l
- DOPAC level in brain (normal mice): 0.61 nmol/g wet weight and 0.65 nmol/g wet weight and 0.66 nmol/g wet weight and 0.59 nmol/g wet weight and 121.6 nmol/l and 118.9 nmol/l and 129.6 nmol/l and 132.5 nmol/l
- HIAA level in brain (normal mice): 3.09 nmol/g wet weight and 3.56 nmol/g wet weight and 3.65 nmol/g wet weight and 3.22 nmol/g wet weight and 617.3 nmol/l and 643.9 nmol/l and 712.0 nmol/l and 730.5 nmol/l
- HVA level in brain (normal mice): 1.26 nmol/g wet weight and 0.99 nmol/g wet weight and 1.20 nmol/g wet weight and 1.28 nmol/g wet weight and 252.9 nmol/l and 256.9 nmol/l and 197.1 nmol/l and 240.6 nmol/l
- MPHG level in brain (normal mice): 0.31 nmol/g wet weight and 0.26 nmol/g wet weight and 0.30 nmol/g wet weight and 0.29 nmol/g wet weight and 62.9 nmol/l and 58.9 nmol/l and 51.2 nmol/l and 59.7 nmol/l

SMILES: C[C@H](O)[C@H](O)[C@H]1CNc2nc(N)[nH]c(=O)c2N1 [6R-BH4]
- Release and liberation of neurotransmitter amines such as dopamine, norepinephrine and serotonin [1]: enhances the release and liberation of neurotransmitter amines
